The source of these data is ChEMBL document CHEMBL5352492, “Application of deep generative model for design of Pyrrolo[2,3-d] pyrimidine derivatives as new selective TANK binding kinase 1 (TBK1) inhibitors” (Eur J Med Chem, 2023).

Assay [1] deals with T1, Serine/threonine-protein kinase TBK1 (Homo sapiens) (UniProt Q9UHD2).
T1 sequence (whole entry): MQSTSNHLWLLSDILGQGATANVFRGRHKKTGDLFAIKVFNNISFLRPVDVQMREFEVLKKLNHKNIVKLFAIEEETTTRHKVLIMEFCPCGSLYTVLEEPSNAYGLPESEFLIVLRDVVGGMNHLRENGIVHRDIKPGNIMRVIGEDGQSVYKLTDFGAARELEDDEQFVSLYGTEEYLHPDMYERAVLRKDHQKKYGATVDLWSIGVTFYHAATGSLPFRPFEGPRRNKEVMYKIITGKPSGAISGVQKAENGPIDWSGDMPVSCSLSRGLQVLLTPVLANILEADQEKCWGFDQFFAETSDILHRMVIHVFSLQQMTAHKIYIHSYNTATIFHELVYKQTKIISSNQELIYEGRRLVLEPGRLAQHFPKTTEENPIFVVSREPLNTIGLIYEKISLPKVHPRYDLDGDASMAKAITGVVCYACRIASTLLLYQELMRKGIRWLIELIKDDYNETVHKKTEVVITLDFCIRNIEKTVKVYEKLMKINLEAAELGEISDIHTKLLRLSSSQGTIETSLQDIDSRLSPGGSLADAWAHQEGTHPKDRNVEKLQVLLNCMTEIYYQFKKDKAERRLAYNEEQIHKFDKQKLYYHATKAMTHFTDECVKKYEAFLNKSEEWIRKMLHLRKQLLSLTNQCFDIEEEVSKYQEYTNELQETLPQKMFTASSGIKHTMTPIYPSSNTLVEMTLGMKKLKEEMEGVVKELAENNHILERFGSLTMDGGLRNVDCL
Kind of assay: Inhibition of TBK1 (unknown origin) incubated at 1000 nM for 1 hr in presence of ATP by FRET based Z'-Lyte assay relative to control.

The target in assay [2] is T1, Serine/threonine-protein kinase TBK1 (Homo sapiens). Kind of assay: Inhibition of TBK1 (unknown origin) incubated at 100 nM for 1 hr in presence of ATP by FRET based Z'-Lyte assay relative to control.
Assay [3] shares this target. Kind of assay: Inhibition of TBK1 (unknown origin) incubated at 10 nM for 1 hr in presence of ATP by FRET based Z'-Lyte assay relative to control.
Assay [4] deals with T2, Serine/threonine-protein kinase TBK1 (Homo sapiens, UniProt Q9UHD2).
T2 sequence (Q9UHD2 whole entry): T1 sequence (whole entry)
Kind of assay: Inhibition of TBK1 (unknown origin) incubated for 1 hr in presence of ATP by FRET based Z'-Lyte assay.

The subject of assay [5] is THP1-Blue ISG. The assay can be described thus: Inhibition of LPS-induced ifn-beta in human THP1-Blue ISG cells treated at 1 uM for 2 hrs RTq-PCR analysis. In kind it is functional, cell-based.
For assay [6], the system named is THP1-Blue ISG. Kind of assay: Inhibition of LPS-induced cxcl10 in human THP1-Blue ISG cells treated at 1 uM for 2 hrs RTq-PCR analysis. The class given is functional, cell-based.
Assay [7] has as its system RAW264.7. Kind of assay: Inhibition of LPS-induced cxcl10 in mouse RAW264.7 cells treated at 1 uM for 2 hrs RTq-PCR analysis. In kind it is functional, cell-based.
Assay [8] has as its system RAW264.7. The assay can be described thus: Inhibition of LPS-induced ifn-beta in mouse RAW264.7 cells treated at 1 uM for 2 hrs RTq-PCR analysis. In kind it is functional, cell-based.

The source made the active and inactive calls. The calls are words filed in the database; no cut-off is given here.

For orientation: inhibition means the drop in the measured response relative to a control, in per cent. For orientation: IC50 means the concentration that inhibits the measured activity by half. With `O=C(NCCCn1ccc2cnc(Nc3cccc(CN4CCOCC4)c3)nc21)C1CCC1`, the figures for the inhibition in assay [1], in assay [2] and in assay [3] were 92.1%, 69.7% and 23.3%, respectively. Further, the IC50 in assay [4] is 66.7 nM.
With `O=C(NCCCn1cc(Br)c2cnc(Nc3cccc(CN4CCOCC4)c3)nc21)C1CCC1`, the figures for the inhibition in assay [1], in assay [2] and in assay [3] were 84.4%, 37.1% and 1.33%, respectively.
For `O=C(NCc1cccc(-n2ccc3cnc(Nc4cccc(CN5CCOCC5)c4)nc32)c1)C1CCC1` the same measures were 72.8%, 15.7% and below 0%.
For the molecule `COCCN(C)Cc1cccc(Nc2ncc3ccn(CCCNC(=O)C4CCC4)c3n2)c1`, the figures for the inhibition in assay [1], in assay [2] and in assay [3] were 91.8%, 68.9% and 23%, respectively. For the same molecule, the IC50 in assay [4] worked out at 35.7 nM.
With `O=C(C1CCC1)N1CCC(n2ccc3cnc(Nc4cccc(CN5CCOCC5)c4)nc32)C1` (configuration not stated), the inhibition in assay [1], in assay [2] and in assay [3] was below 0% in each case.
With `Cc1cn(CCCNC(=O)C2CCC2)c2nc(Nc3cccc(CN4CCOCC4)c3)ncc12`, the inhibition in assay [1] was 78.7%; in assay [2], 22.8%; in assay [3], below 0%.
With `CN1CCN(Cc2cccc(Nc3ncc4ccn(CCCNC(=O)C5CCC5)c4n3)c2)CC1`, the inhibition in assay [1] is 72.6%; in assay [2], 44.5%; in assay [3], -3.2%. For the same molecule, the IC50 in assay [4] came to 53.6 nM.
As to `O=C(Nc1ccc(-n2ccc3cnc(Nc4cccc(CN5CCOCC5)c4)nc32)nc1)C1CCC1`, the inhibition was 1.8% in assay [1], below 0% in assay [2] and below 0% in assay [3].
In the case of `O=C(C1CCC1)N1CCC(n2ccc3cnc(Nc4cccc(CN5CCOCC5)c4)nc32)CC1`, the inhibition in assay [1], in assay [2] and in assay [3] was below 0% throughout.
For `O=C(NCCCn1cc(Cl)c2cnc(Nc3cccc(CN4CCOCC4)c3)nc21)C1CCC1`, the figures for the inhibition in assay [1], in assay [2] and in assay [3] were 91%, 55.8% and 9.6%, respectively.
For the molecule `O=C(NCCCNc1nc(Nc2cccc(CN3CCOCC3)c2)ncc1C1CC1)C1CCC1`, the inhibition entry in assay [5], in assay [6], in assay [7] and in assay [8] was “Active” throughout.
For `O=C(NCCCn1ccc2cnc(Nc3cccc(CN4CCN(C5COC5)CC4)c3)nc21)C1CCC1`, the inhibition amounted to 92.3% in assay [1], 64% in assay [2] and 14.7% in assay [3]. In addition, the IC50 in assay [4] amounted to 50 nM.
As for `O=C(Nc1cccc(Cn2ccc3cnc(Nc4cccc(CN5CCOCC5)c4)nc32)c1)C1CCC1`, the inhibition in assay [1], in assay [2] and in assay [3] was below 0% in each case.
For the molecule `N#Cc1cn(CCCNC(=O)C2CCC2)c2nc(Nc3cccc(CN4CCOCC4)c3)ncc12`, the inhibition in assay [1] was 26.4%; in assay [2] it was below 0%; in assay [3], below 0%.
Turning to `Cc1cc(=O)n(CCCNC(=O)C2CCC2)c2nc(Nc3cccc(CN4CCOCC4)c3)ncc12`, the inhibition in assay [1], in assay [2] and in assay [3] was below 0% in each case.
In the case of `O=C(NCCCn1ncc2cnc(Nc3cccc(CN4CCOCC4)c3)nc21)C1CCC1`, the inhibition in assay [1] is 29%; in assay [2] it was below 0%; in assay [3] it was below 0%.
As to `O=C(NCCCn1cnc2cnc(Nc3cccc(CN4CCOCC4)c3)nc21)C1CCC1`, the figures for the inhibition in assay [1], in assay [2] and in assay [3] were 25.5%, below 0% and below 0%, respectively.
For `O=C(NCCCN1C(=O)Cc2cnc(Nc3cccc(CN4CCOCC4)c3)nc21)C1CCC1`, the inhibition in assay [1] is 0.6%; in assay [2], below 0%; in assay [3], below 0%.
Regarding `O=C(NCCCn1cc(C2CC2)c2cnc(Nc3cccc(CN4CCOCC4)c3)nc21)C1CCC1`, the inhibition in assay [1], in assay [2] and in assay [3] was below 0% in each case.
